Source: publication PMC11313193, “Which Constituents Determine the Antioxidant Activity and Cytotoxicity of Garlic? Role of Organosulfur Compounds and Phenolics” (International Journal of Molecular Sciences, 2024)
Converted amounts (≈) assume the structure as drawn. Where two headings read alike, the source gives them in different places.

Columns and labels:
[1] = test system: PLC/PRF/5 human hepatoma cells; set-up: method as in PMID 8593472; conditions: cited from earlier work
[2] = test system: LNCaP prostate cancer cells; set-up: method as in PMID 19589639; conditions: 48 h exposure, cited from earlier work
[3] = test system: SKOV-3 ovarian cancer cells; experiment: Cytotoxicity (Neutral Red), SKOV-3 cells; format: cell-based, human; conditions: for Concentration at which viability of SKOV-3 cells was lowered: p < 0.05; for IC50: Homo sapiens, read-out: IC50 SKOV-3
Method: (§1) The PEO1 cells, SKOV-3 cells, and MRC-5 cells were grown at 37 °C and 5% CO2 in RPMI + GlutaMAX medium, McCoy’s 5A medium, and the DMEM + GlutaMAX medium, respectively. The media were supplemented with 10% heat-inactivated fetal calf serum and penicillin/streptomycin. The cell viability was evaluated using the Trypan Blue exclusion test.
(§2) In the cytotoxicity experiments, cells were grown in wells of sterile 96-well plates. The seeding density was 1 × 10^4 for SKOV-3 and MRC-5 cells and 1.5 × 10^4 for PEO1 cells. The cells were allowed to grow in the incubator for 24 h. Then, the medium was removed and new medium with an examined compound was added. The stock solutions of the compounds studied diluted with the appropriate cell medium were filtered before the addition to the cells using 0.22 µm filters. No more than 0.02% of DMSO was present in the media, and it had no discernible impact on the treated cells. Cells not exposed to any compound served as a control. After another 24 h incubation, the medium was gently aspirated, and the wells were added with 2% sterile Neutral Red solution (100 µL). The plates were then incubated (37 °C, 5% CO2) for one hour. The Neutral Red solution was aspirated, and the wells were washed two times with warm (37 °C) PBS. Subsequently, 100 µL of a permeabilization mixture (water/ethanol/glacial acetic acid, 50/49/1, v/v/v) was introduced to each well. The plates were shaken at 700 rpm for 20 min and absorbance was read at a wavelength of 540 nm against 620 nm.

[4] = test system: PEO1 ovarian cancer cells; experiment: Cytotoxicity (Neutral Red), PEO1 cells; format: cell-based, human; conditions: for Concentration at which viability of PEO1 cells was lowered: p < 0.05; for IC50: Homo sapiens, read-out: IC50 PEO1
Method: as §1, §2

[5] = test system: HeLa cervical cancer cells; set-up: method as in PMID 24843386; conditions: range given for HeLa and HTB-35, converted; cited from earlier work
[6] = ABTS^● decolorization assay; conditions: 30 min incubation at room temperature, absorbance at 734 nm
Method: A modification of the ABTS^● decolorization assay was employed. Briefly, various volumes of solutions of the studied compounds were introduced to wells of a 96-well microplate, each prefilled 200 μL of ABTS^● solution. […] The drop in absorbance after 30 min incubation at room temperature was read as a measure of the antioxidant activity.
(§3) All assays were standardized with respect to Trolox. The antioxidant activity was calculated in each case as a ratio of the slope of the dependence of absorbance change on the concentration of a studied compound to the slope of the dependence of absorbance change of standard samples concerning Trolox on the concentration of Trolox. Antioxidant activities were expressed in moles of Trolox equivalents (TE)/mol of a studied compound, as described previously.

[7] = test system: HeLa human epithelial carcinoma cells; set-up: method as in PMID 8593472; conditions: cited from earlier work
[8] = Ferric reducing antioxidant power (FRAP) assay; conditions: 30 min at ambient temperature, pH 3.6, absorbance at 593 nm
Method: The method proposed by Benzie and Strain [91] was employed with a slight modification. Briefly, increasing volumes of solutions of the studied compounds were added to wells of a 96-well microplate prefilled with 200 μL of the working solution composed of 0.3 M acetate buffer, pH 3.6 (10 volumes), 10 mM 2,4,6-tris(2-pyridyl)-s-triazine (TPTZ), in 40 mM HCl (1 volume) and 20 mM FeCl3 (1 volume), was prepared immediately before use. After 30 min incubation at ambient temperature and the absorbance of the Fe^2+-TPTZ complex was read at 593 nm.
as §3

[9] = test system: PC-3 prostate cancer cells; set-up: method as in PMID 19589639; conditions: 48 h exposure, cited from earlier work
[10] = test system: HTB-35 cervical cancer cells; set-up: method as in PMID 24843386; conditions: range given for HeLa and HTB-35, converted; cited from earlier work
[11] = test system: DUI45 prostate cancer cells; set-up: method as in PMID 19589639; conditions: 48 h exposure, cited from earlier work
[12] = test system: P388-D1 mouse lymphoid cancer cells; set-up: method as in PMID 8593472; conditions: cited from earlier work
[13] = test system: HL-60RG human promyelocytic leukemia cells; set-up: method as in PMID 8593472; conditions: cited from earlier work
[14] = test system: dRLh-84 rat hepatoma cells; set-up: method as in PMID 8593472; conditions: cited from earlier work
[15] = test system: KB human epidermoid carcinoma cells; set-up: method as in PMID 8593472; conditions: cited from earlier work
[16] = DPPH^● decolorization assay; conditions: 30 min at ambient temperature in the dark, absorbance at 517 nm
Method: The assay was performed as described in a previous article. Briefly, increasing volumes of solutions of the studied compounds were introduced to wells of a 96-well microplate, each with 200 μL of 0.3 mM DPPH^● solution in methanol. The reaction was allowed to proceed for 30 min at ambient temperature in the dark, and absorbance at 517 nm was read. The absorbance decrease was a measure of the antioxidant activity.
as §3

MRC-5 fibroblasts = experiment: Cytotoxicity (Neutral Red), MRC-5 fibroblasts; format: cell-based, human; conditions: for IC50: Homo sapiens, read-out: IC50 MRC-5
Method: as §1, §2

[17] = test system: A549 human adenocarcinomic alveolar basal epithelial cells; set-up: method as in PMID 14688022; conditions: cited from earlier work
MCF-7 cells = test system: MCF-7 cells; set-up: method as in PMID 24223637; conditions: 40 μg/mL (132 μM); cited from earlier work
[18] = test system: HGC-27 gastric cancer cell line; set-up: method as in PMID 2298289; conditions: range given for four gastric cancer cell lines; read-out: IC50 HGC-27 gastric cancer cells; cited from earlier work
[19] = test system: MKN-7 gastric cancer cell line; set-up: method as in PMID 2298289; conditions: range given for four gastric cancer cell lines; read-out: IC50 MKN-7 gastric cancer cells; cited from earlier work
[20] = test system: NUGC-2 gastric cancer cell line; set-up: method as in PMID 2298289; conditions: range given for four gastric cancer cell lines; read-out: IC50 NUGC-2 gastric cancer cells; cited from earlier work
[21] = test system: colorectal cancer CACO-2 cells; set-up: method as in PMID 25829782; conditions: cited from earlier work
[22] = test system: colorectal cancer SW-620 cells; set-up: method as in PMID 25829782; conditions: cited from earlier work
[23] = test system: breast cancer HCC1937 cells; set-up: method as in PMID 16619521; conditions: 100 μM; cited from earlier work
[24] = test system: MKN-28 gastric cancer cell line; set-up: method as in PMID 2298289; conditions: range given for four gastric cancer cell lines; read-out: IC50 MKN-28 gastric cancer cells; cited from earlier work
SKOV-3 cells = test system: SKOV-3 cells; set-up: method as in PMID 16675472; conditions: cited from earlier work
HO8910 xenograft tumors = test system: HO8910 xenograft tumors; set-up: method as in PMID 16675472; conditions: administered intragastrically; cited from earlier work
SKOV-3 xenograft tumors = test system: SKOV-3 xenograft tumors; set-up: method as in PMID 16675472; conditions: administered intragastrically; cited from earlier work

Compound: O=C(O)c1cc(O)c(O)c(O)c1 [Gallic acid, gallic acid]
- IC50 PLC/PRF/5 cells [1]: 6.6 µg/mL (≈ 38.8 µM)
- IC50 ([1]; converted from μg/mL): 37 µM
- IC50 ([2]; converted): 117 µM
- IC50 LNCaP prostate cancer cells [2]: 21 µg/mL (≈ 123 µM)
- Concentration at which viability of SKOV-3 cells was lowered ([3]; 24 h exposure): 200 to 1000 µM
- IC50 ([3]; SK-OV-3, 24 h exposure, Neutral Red): 115 µM
- Concentration at which viability of PEO1 cells was lowered ([4]; 24 h exposure): 200 to 1000 µM
- IC50 ([4]; PEO1, 24 h exposure, Neutral Red): 19 µM
- IC50 [5]: 111 to 139 µM
- Antioxidant activity, ABTS^● Decolorization [6]: 0.972 ± 0.028 mol Trolox equivalents (TE)/mol compound
- IC50 HeLa cells [7]: 6.1 µg/mL (≈ 35.9 µM)
- IC50 ([7]; converted from μg/mL): 34 µM
- Antioxidant activity, FRAP [8]: 0.332 ± 0.001 mol Trolox equivalents (TE)/mol compound
- IC50 ([9]; converted): 89 µM
- IC50 PC-3 prostate cancer cells [9]: 16 µg/mL (≈ 94.1 µM)
- IC50 [10]: 111 to 139 µM
- IC50 ([11]; converted): 89 µM
- IC50 DUI45 prostate cancer cells [11]: 16 µg/mL (≈ 94.1 µM)
- IC50 P388-D1 cells [12]: 4.8 µg/mL (≈ 28.2 µM)
- IC50 ([12]; converted from μg/mL): 27 µM
- IC50 HL-60RG cells [13]: 5.4 µg/mL (≈ 31.7 µM)
- IC50 ([13]; converted from μg/mL): 30 µM
- IC50 dRLh-84 cells [14]: 6.2 µg/mL (≈ 36.4 µM)
- IC50 ([14]; converted from μg/mL): 34 µM
- IC50 KB cells [15]: 13.2 µg/mL (≈ 77.6 µM)
- IC50 ([15]; converted from μg/mL): 73 µM
- Antioxidant activity, DPPH^● Decolorization [16]: 0.178 ± 0.023 mol Trolox equivalents (TE)/mol compound
- Concentration at which viability of MRC-5 cells was lowered (MRC-5 fibroblasts; 24 h exposure, p < 0.05): 200 to 1000 µM
- IC50 (MRC-5 fibroblasts; MRC5, 24 h exposure, Neutral Red): 243 µM

Compound: O=c1c(O)c(-c2ccc(O)c(O)c2)oc2cc(O)cc(O)c12 [Quercetin]
- IC50 [17]: ~40 µM
- Viability of MCF-7 cells (diminished to) (MCF-7 cells): ca. 70%
- IC50 [18]: 32 to 55 µM
- IC50 [19]: 32 to 55 µM
- Concentration at which viability of SKOV-3 cells was lowered ([3]; 24 h exposure): 75 to 200 µM
- IC50 ([3]; SK-OV-3, 24 h): 272 µM
- IC50 [20]: 32 to 55 µM
- Concentration at which viability of PEO1 cells was lowered ([4]; 24 h exposure): 75 to 200 µM
- IC50 ([4]; PEO1, 24 h): 100 µM
- IC50 [21]: 35 µM
- Antioxidant activity, ABTS^● Decolorization [6]: 1.138 ± 0.029 mol Trolox equivalents (TE)/mol compound
- Antioxidant activity, FRAP [8]: 1.350 ± 0.201 mol Trolox equivalents (TE)/mol compound
- IC50 [22]: 20 µM
- Viability of HCC1937 cells (diminished to) [23]: ca. 40%
- Antioxidant activity, DPPH^● Decolorization [16]: 0.384 ± 0.040 mol Trolox equivalents (TE)/mol compound
- Concentration range with no significant decrease in viability of MRC-5 cells (MRC-5 fibroblasts; 24 h exposure): up to 200 µM
- IC50 (MRC-5 fibroblasts; MRC5, 24 h): 111 µM
- IC50 [24]: 32 to 55 µM

Compound: C=CCSSC[C@H](N)C(=O)O [SAMC, S-allylmercaptocysteine]
- Migration of SKOV-3 cells and their invasiveness (SKOV-3 cells): inhibited
- Development of xenograft tumors formed by HO8910 cells (HO8910 xenograft tumors): inhibited
- Development of xenograft tumors formed by SKOV-3 cells (SKOV-3 xenograft tumors): inhibited
